Assay: Measurement of solubility with respect to cyclohexane:toluene=5:1 (by weight)
Type: physicochemical
Details: 25° C., stirred 1 hour, 0.45 μm filter
Method: 1.0 g of hydrophilic compound SPA-K, namely, potassium 3-acryloyloxypropylsulfonate (or potassium 3-sulfopropylacrylate salt) as a constituent for the concentration-gradient films according to the invention was added to 10.0 g of a mixture solution including 8.3 g of cyclohexane and 1.7 g of toluene. The mixture was stirred at 25° C. for 1 hour and was filtered through a 0.45 μm membrane filter.
The filtrate was placed onto an evaporation dish, heated at 150° C. for 2 hours, and cooled to room temperature. The weight of the residue was measured.
Lastly, the solubility with respect to cyclohexane:toluene=5:1 (by weight) was calculated using the following equation.
Solubility (wt %)=Weight of residue (g)/{10.0 (g)+Weight of residue (g)}×100

## C=CC(=O)OCCCS(=O)(=O)[O-].[K+] [SPA-K, potassium 3-acryloyloxypropylsulfonate]
  Solubility with respect to cyclohexane:toluene=5:1 (by weight): < 1 wt %

From patent US20180163056A1, “HYDROPHILIC CURABLE COMPOSITIONS” (MITSUI CHEMICALS, INC., priority 2013, published 2018)
